The numbers were not newly measured in patent publication US6465018B1, “Dietary supplement for increasing energy, strength, and immune function” (priority 1997, dated 2002), which cites them from elsewhere.

For this series, the system named is individuals told to avoid physical exercise. Conditions: daily dosage of 3 grams.

Turning to `CN(CC(=O)O)C(=N)N` [creatine monohydrate], the intracellular creatine concentrations result is reported as “raised intracellular creatine concentrations to effective levels”.
